Assays:
[1] = molecular target: T1, Recombinant human DDR1 (Homo sapiens, UniProt Q08345); assay: LanthaScreen Eu Kinase Binding Assay, DDR1; conditions: recombinant human DDR1 (2.5 nM; aa440-876, GST tag), Kinase Tracer 178 5 nM, time-resolved fluorescence, at least two independent replicates; read-out: DDR1 pIC50 (converted)
T1 construct: Recombinant human DDR1 (2.5 nM; aa440-876 containing a GST tag)
Procedure: (§1) DDR1 and DDR2 Biochemical Assay Method
(§2) The capacity of compounds to bind to DDR1 and DDR2 was quantified using a LanthaScreen Eu Kinase Binding Assay. Recombinant human DDR1 (2.5 nM; aa440-876 containing a GST tag) and DDR2 (1.75 nM; aa427-855 containing a GST tag) were diluted in assay buffer (50 mM HEPES pH7.3, 10 mM MgCl2, 1 mM EGTA and 0.01% Tween) with various concentrations of compound in a 384-well plate and a volume of 5 uL. After a 30-minute incubation at room temperature, 2.5 uL of Eu-anti GST antibody (diluted to 1 nM in assay buffer) plus Kinase Tracer 178 (diluted in assay buffer to 5 nM for DDR1 and 10 nM for DDR2) were added to the plate. Following 60-minute incubation at room temperature, time-resolved fluorescence was measured on a BMG Labtech PHERAstar plate reader. DMSO (1%) and reference compound (1 μM) were used to generate the Max and Min assay signals, respectively. Data was analysed using a four-parameter logistic model to calculate IC50 values, with at least two independent replicates were performed for each compound.

[2] = molecular target: T2, Recombinant human DDR2 (Homo sapiens, UniProt Q16832); assay: LanthaScreen Eu Kinase Binding Assay, DDR2; conditions: recombinant human DDR2 (1.75 nM; aa427-855, GST tag), Kinase Tracer 178 10 nM, time-resolved fluorescence, at least two independent replicates; read-out: DDR2 pIC50 (converted)
T2 construct: DDR2 (1.75 nM; aa427-855 containing a GST tag)
T2 sequence (Q16832 427-855): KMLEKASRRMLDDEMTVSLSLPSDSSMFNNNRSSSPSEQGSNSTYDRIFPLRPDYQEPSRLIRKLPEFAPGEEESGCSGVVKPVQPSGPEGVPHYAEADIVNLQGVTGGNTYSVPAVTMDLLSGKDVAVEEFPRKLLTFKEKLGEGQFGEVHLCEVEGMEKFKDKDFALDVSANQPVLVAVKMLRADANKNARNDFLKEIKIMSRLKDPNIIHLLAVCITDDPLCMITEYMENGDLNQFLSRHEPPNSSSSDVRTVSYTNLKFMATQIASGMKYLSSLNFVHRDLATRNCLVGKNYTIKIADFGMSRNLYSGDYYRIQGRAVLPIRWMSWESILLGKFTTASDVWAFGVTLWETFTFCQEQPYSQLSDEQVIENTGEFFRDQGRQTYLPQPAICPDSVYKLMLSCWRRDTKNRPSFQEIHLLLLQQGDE
Procedure: as §1, §2

T1 sequence (Q08345 440-876 isoform Q08345-2): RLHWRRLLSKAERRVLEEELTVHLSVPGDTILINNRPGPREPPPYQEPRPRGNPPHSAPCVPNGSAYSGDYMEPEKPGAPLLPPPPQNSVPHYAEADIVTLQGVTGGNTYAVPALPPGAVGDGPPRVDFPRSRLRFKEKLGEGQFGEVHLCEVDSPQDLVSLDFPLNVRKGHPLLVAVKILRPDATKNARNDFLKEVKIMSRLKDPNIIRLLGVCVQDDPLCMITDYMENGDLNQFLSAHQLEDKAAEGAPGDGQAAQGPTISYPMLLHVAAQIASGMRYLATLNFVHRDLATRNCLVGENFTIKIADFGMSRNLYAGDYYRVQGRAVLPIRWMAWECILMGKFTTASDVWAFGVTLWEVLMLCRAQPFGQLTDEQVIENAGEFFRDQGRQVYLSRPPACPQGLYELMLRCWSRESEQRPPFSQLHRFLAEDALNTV

COC(=O)c1cncc(NC(=O)Cn2ccc3cccc(Nc4ccc5c(cnn5C)c4)c3c2=O)c1 [Example 63]
IC50 [1]: 10 to 100 nM
IC50 [2]: 10 to 100 nM

Cn1ncc2cc(Nc3cccc4ccn(CC(=O)Nc5cncc(C(F)(F)F)c5)c(=O)c34)cnc21 [Example 99, 2-[8-({1-methyl-1H-pyrazolo[3,4-b]pyridine-5-5-yl}amino)1-oxo-1,2-dihydroisoquinolin-2-yl]-N-[5-(trifluoromethyl)pyridine-3-yl]acetamide]
IC50 [1]: 10 to 100 nM
IC50 [2]: 10 to 100 nM

Cn1cc(NC(=O)Cn2ccc3cccc(Nc4ccc5c(cnn5C)c4)c3c2=O)cn1 [Example 41, 2-[8-[(1-methylindazol-5-yl)amino]-1-oxo-2-isoquinolyl]-N-(1-methylpyrazol-4-yl)acetamide]
IC50 [1]: 100 to 1000 nM
IC50 [2]: ≥ 1000 nM

Cn1ncc2cc(Nc3cccc4ccn(CC(=O)NCCC(F)(F)F)c(=O)c34)ccc21 [Example 44, 2-[8-[(1-methylindazol-5-yl)amino]-1-oxo-2-isoquinolyl]-N-(3,3,3-trifluoropropyl)acetamide]
IC50 [1]: 100 to 1000 nM
IC50 [2]: ≥ 1000 nM

Cc1noc(C)c1NC(=O)Cn1ccc2cccc(Nc3ccc4c(cnn4C)c3)c2c1=O [Example 69, N-(3,5-dimethylisoxazol-4-yl)-2-[8-[(1-methylindazol-5-yl)amino]-1-oxo-2-isoquinolyl]acetamide]
IC50 [1]: 100 to 1000 nM
IC50 [2]: 100 to 1000 nM

CN(c1ccc2c(cnn2C)c1)c1cccc2ccn(CC(=O)NCC(F)(F)F)c(=O)c12 [Example 88, 2-[8-[methyl-(1-methylindazol-5-yl)amino]-1-oxo-2-isoquinolyl]-N-(2,2,2-trifluoroethyl) acetamide]
IC50 [1]: 10 to 100 nM
IC50 [2]: 100 to 1000 nM

Cn1ncc2cc(Nc3cccc4ccn(CC(=O)Nc5cccnc5)c(=O)c34)ccc21 [Example 24, 2-[8-[(1-methylindazol-5-yl)amino]-1-oxo-2-isoquinolyl]-N-(3-pyridyl)acetamide]
IC50 [1]: 100 to 1000 nM
IC50 [2]: ≥ 1000 nM

Cn1cnc(NC(=O)Cn2ccc3cccc(Nc4ccc5c(cnn5C)c4)c3c2=O)c1 [Example 81, N-(1-methylimidazol-4-yl)-2-[8-[(1-methylindazol-5-yl)amino]-1-oxo-2-isoquinolyl]acetamide]
IC50 [1]: 10 to 100 nM
IC50 [2]: ≥ 1000 nM

Cn1ncc2cc(Nc3cc(F)cc4ccn(CC(=O)NCC(F)(F)F)c(=O)c34)ccc21 [Example 47, 2-[6-fluoro-8-[(1-methylindazol-5-yl)amino]-1-oxo-2-isoquinolyl]-N-(2,2,2-trifluoroethyl) acetamide]
IC50 [1]: 100 to 1000 nM
IC50 [2]: ≥ 1000 nM

Cn1ncc2cc(Nc3cccc4ccn(CC(=O)NCC(F)(F)F)c(=O)c34)cc(C#N)c21 [Example 119, 2-(8-((7-cyano-1-methyl-1H-indazol-5-yl)amino)-1-oxoisoquinolin-2(1H)-yl)-N-(2,2,2-trifluoroethyl)acetamide]
IC50 [1]: < 10 nM
IC50 [2]: ≥ 1000 nM

Cn1ncc2cc(Nc3cccc4ccn(CC(=O)Nc5cc(C(F)(F)F)no5)c(=O)c34)ccc21 [Example 48, 2-[8-[(1-methylindazol-5-yl)amino]-1-oxo-2-isoquinolyl]-N-[3-(trifluoromethyl)isoxazol-5-yl]acetamide]
IC50 [1]: 10 to 100 nM
IC50 [2]: 10 to 100 nM

CN(CC(F)(F)F)C(=O)Cn1ccc2cccc(Nc3ccc4c(cnn4C)c3)c2c1=O [Example 23, N-methyl-2-[8-[(1-methylindazol-5-yl)amino]-1-oxo-2-isoquinolyl]-N-(2,2,2-trifluoroethyl)acetamide]
IC50 [1]: 10 to 100 nM
IC50 [2]: 100 to 1000 nM

Cn1ncc2cc(Nc3cccc4ccn(CC(=O)N5CCCCC5)c(=O)c34)ccc21 [Example 93]
IC50 [1]: 100 to 1000 nM
IC50 [2]: 100 to 1000 nM

CN(C)Cc1cccc(NC(=O)Cn2ccc3cccc(Nc4ccc5c(cnn5C)c4)c3c2=O)c1 [Example 104, N-{3-[(dimethylamino)methyl]phenyl}-2-{8-[(1-methyl-1H-indazol-5-yl)amino]-1-oxo-1,2-dihydroisoquinolin-2-yl}acetamide]
IC50 [1]: 10 to 100 nM
IC50 [2]: 100 to 1000 nM

C[C@@H]1COC[C@H](C)N1C(=O)Cn1ccc2cccc(Nc3ccc4c(cnn4C)c3)c2c1=O [Example 96, 2-{2-[(3R,5S)-3,5-dimethylmorphin-4-yl]-2-oxoethyl}-8-[(1-methyl-1H-indazol-5-yl)amino]-1,2-dihydroisoquinolin-1-one]
IC50 [1]: 100 to 1000 nM
IC50 [2]: ≥ 1000 nM

Cn1ncc2cc(Nc3cccc4ccn(CC(=O)N5C6CCC5COC6)c(=O)c34)ccc21 [Example 97, 8-[(1-methyl-1H-indazol-5-yl)amino]-2-(2-{3-oxa-8-azabicyclo[3.2.1]octan-8-yl}-2-oxoethyl)-1,2-dihydroisoquinolin-1-one]
IC50 [1]: 100 to 1000 nM
IC50 [2]: ≥ 1000 nM

O=C(Cn1ccc2cccc(Nc3ccc4cn[nH]c4c3)c2c1=O)NCC(F)(F)F [Example 2]
IC50 [1]: 10 to 100 nM
IC50 [2]: ≥ 1000 nM

Cn1ncc2cc(Nc3cccc4ccn(CC(=O)N[C@@H](C5CC5)C(F)(F)F)c(=O)c34)ccc21 [Example 57, N-[(1S)-1-cyclopropyl-2,2,2-trifluoro-ethyl]-2-[8-[(1-methylindazol-5-yl)amino]-1-oxo-2-isoquinolyl]acetamide]
IC50 [1]: < 10 nM
IC50 [2]: 10 to 100 nM

Cn1ncc2cc(Nc3cccc4ccn(CC(=O)Nc5cnco5)c(=O)c34)ccc21 [Example 95, 2-{8-[(1-methyl-1H-indazol-5-yl)amino]-1-oxo-1,2-dihydroisoquinolin-2-yl}-N-(1,3-oxazol-5-yl)acetamide]
IC50 [1]: 10 to 100 nM
IC50 [2]: 100 to 1000 nM

CN(c1ccc2c(cnn2C)c1)c1cccc2ccn(CC(=O)Nc3cnoc3)c(=O)c12 [Example 140, N-isoxazol-4-yl-2-[8-[methyl-(1-methylindazol-5-yl)amino]-1-oxo-2-isoquinolyl]acetamide]
IC50 [1]: 10 to 100 nM
IC50 [2]: 10 to 100 nM

Cc1ccc(Nc2ccc3c(cnn3C)c2)c2c(=O)n(CC(=O)NCC(F)(F)F)ccc12 [Example 8, 2-[5-methyl-8-[(1-methylindazol-5-yl)amino]-1-oxo-2-isoquinolyl]-N-(2,2,2-trifluoroethyl)acetamide]
IC50 [1]: ≥ 1000 nM
IC50 [2]: ≥ 1000 nM

Cn1ncc2cc(Nc3cccc4ccn(CC(=O)NCC56CCCN5CCC6)c(=O)c34)ccc21 [Example 138]
IC50 [1]: ≥ 1000 nM
IC50 [2]: ≥ 1000 nM

COc1cncc(NC(=O)Cn2ccc3cccc(Nc4ccc5c(cnn5C)c4)c3c2=O)c1 [Example 56, N-(5-methoxy-3-pyridyl)-2-[8-[(1-methylindazol-5-yl)amino]-1-oxo-2-isoquinolyl]acetamide]
IC50 [1]: 10 to 100 nM
IC50 [2]: 10 to 100 nM

Cn1ncc2cc(Nc3cccc4ccn(CC(=O)Nc5cccc(C(C)(C)N)c5)c(=O)c34)ccc21 [Example 103]
IC50 [1]: < 10 nM
IC50 [2]: 10 to 100 nM

Cn1ncc2cc(Nc3cccc4ccn(CC(=O)NC5(C(F)(F)F)CCCC5)c(=O)c34)ccc21 [Example 42, 2-[8-[(1-methylindazol-5-yl)amino]-1-oxo-2-isoquinolyl]-N-[1-(trifluoromethyl)cyclopentyl]acetamide]
IC50 [1]: 10 to 100 nM
IC50 [2]: 100 to 1000 nM

CN1CCN(Cc2ccc(NC(=O)Cn3ccc4cccc(Nc5ccc6c(cnn6C)c5)c4c3=O)cc2C(F)(F)F)CC1 [Example 76]
IC50 [1]: 10 to 100 nM
IC50 [2]: 10 to 100 nM

Cn1ncc2cc(Nc3cccc4ccn(CC(=O)N5CCCC5)c(=O)c34)ccc21 [Example 94, 8-[(1-methyl-1H-indazol-5-yl)amino]-2-[2-oxo-2-(pyrrolidin-1-yl)ethyl]-1,2-dihydroisoquinolin-1-one]
IC50 [1]: 100 to 1000 nM
IC50 [2]: ≥ 1000 nM

Cn1ncc2cc(Nc3cccc4ccn(CC(=O)NCC(F)(F)F)c(=O)c34)ccc21 [Example 3, 2-[8-[(1-methylindazol-5-yl)amino]-1-oxo-2-isoquinolyl]-N-(2,2,2-trifluoroethyl)acetamide]
IC50 [1]: 10 to 100 nM
IC50 [2]: 100 to 1000 nM

Cn1ncc2cc(Nc3cccc4ccn(CC(=O)N5CCOC(C(F)(F)F)C5)c(=O)c34)ccc21 (stereo not drawn) [Example 43, 8-[(1-methylindazol-5-yl)aminio]-2-[2-oxo-2-[2-(trifluoromethyl)morpholin-4-yl]ethyl]isoquinolin-1-one]
IC50 [1]: 10 to 100 nM
IC50 [2]: ≥ 1000 nM

CC(C(=O)NCC(F)(F)F)n1ccc2cccc(Nc3ccc4c(cnn4C)c3)c2c1=O (stereo not drawn) [Example 51, 2-[8-[(1-methylindazol-5-yl)amino]-1-oxo-2-isoquinolyl]-N-(2,2,2-trifluoroethyl) propanamide]
IC50 [1]: ≥ 1000 nM
IC50 [2]: ≥ 1000 nM
